# Measured values published in patent US6010890A, “Method for viral inactivation and compositions for use in same” (New York Blood Center, Inc., priority 1997, dated 2000).
# Entries after “also recorded” stand apart in the source; their conditions may differ. Read-outs that look alike come from different tables or passages of the source.
# How the values were obtained:
# [1] = system: HIV (cell-free); test: Virus inactivation in RBCC using Pc4 and red light: HIV cell-free (Example 2); format: cell-based; details: for Light Dose (for ≥6 log10 virus kill): HIV (cell-free), Pc4 2 μM with 4 mM cysteine, 1 mM tocopherol succinate, 0.5 mM carnitine, 670 nm LED
# [2] = system: HIV; format: cell-based
# [3] = system: BDV; test: Virus inactivation in RBCC using Pc4 and red light: BDV (Example 2); format: cell-based; details: for Light Dose (for ≥6 log10 virus kill): Pc4 2 μM with 4 mM cysteine, 1 mM tocopherol succinate, 0.5 mM carnitine, 670 nm LED
# [4] = system: VSV; format: cell-based; details: for Light Dose (for ≥6 log10 virus kill): Pc4 2 μM with 4 mM cysteine, 1 mM tocopherol succinate, 0.5 mM carnitine, 670 nm LED
# [5] = system: VSV; format: cell-based
# [6] = system: HIV (cell-assoc.); test: Virus inactivation in RBCC using Pc4 and red light: HIV cell-associated (Example 2); format: cell-based
# [7] = system: RBC; test: Binding of Pc4 to RBC in RBCC (HPLC after extraction); format: in vitro ADME, human; details: for Pc4 Bound to RBC: 2 μM
# Method: The amount of Pc4 bound to RBC in the RBCC was measured using HPLC and extraction procedure described previously (Zuk, M. M., et al. J. Chromat. B Biomed. Appl. 673:220-224 (1995)). Amount of Pc4 was expressed as a percentage of the total recovered in RBCC. Recovery of Pc4 was about 90% (±10%).
# ^1 Pc4 was added into RBCC at 2 μM final concentration. At various
# times thereafter at room temperature, RBC were separated by
# centrifugation, rinsed 5 times with PBS, and Pc4 was extracted and
# analyzed by HPLC, as described. Pc4 not bound to RBC was recovered
# quantitatively from the plasma.
# ^1 Pc4 was added into RBCC at 2 μM final concentration formulated
# in the indicated liposomes. After 35 minutes at 4° C., RBC were
# separated by centrifugation, rinsed 5 times with PBS, and Pc4 was analyze
# [8] = system: RBC; test: RBC hemolysis during storage following virucidal treatment (Example 1); format: cell-based, human
# Method: FIG. 2 represents RBC hemolysis during storage following virucidal treatment. Pc4 was added into RBCC in the indicated delivery vehicle at a final concentration of 2 μM and exposed to 90 J/cm2 broad band red light at room temperature after the indicated incubation time at room temperature. The treated RBCC were stored at 4° C. prior to assay.
# FIG. 4 represents RBC hemolysis during storage following virucidal treatment. PC4 was added to RBCC in the indicated liposomal formulations at 2 μM and exposed to 668 nm light at room temperature and the indicated dose after 5 minutes incubation. The treated RBCC were stored at 4° C. prior to assay.
# FIG. 6 represents RBC hemolysis during storage following virucidal treatment. […] The treated RBCC were stored at 4° C. prior to assay.
# RBCC samples (3 ml in polystyrene tubes) at hematocrit of 58-60% in ADSOL (obtained from Blood Services, New York Blood Center) were irradiated with red light either as a broad band (600-800 nm) or as a narrow band at 668 nm or 700 nm. Broad band light was from a 300 W xenon lamp (Oriel Corp., Stratford, Conn.) equipped with a cutoff filter (λ>600 nm) with an irradiance of 25 mW/cm^2. Narrow band light (27 nm bandwidth at half-height) was from LED arrays (Efos Canada, Inc., Mississauga, Ontario, Canada) emitting at either 668 nm or 700 nm with an irradiance of 50 mW/cm^2. During irradiation the samples were rotated and rolled on a hematology mixer (Fisher Scientific, Inc., Pittsburgh, Pa.) to obtain even exposure. Temperature was kept at 25 or 4° C. by an air stream of appropriate temperature.
# Samples of RBCC were stored after treatment at 4° C. The extent of hemolysis was determined by comparing the hemoglobin in the supernatant to the total hemoglobin. The total hemoglobin was determined by using the Drabkin reagent (Sigma Procedure #525, Sigma Chemical Co., St. Louis, Mo.). The absorption at 540 nm was used to calculate the amount of hemoglobin released in the supernatant.
# [9] = system: baboon RBC; test: Circulatory survival of baboon RBC after virucidal treatment (preliminary); format: in vivo
# [10] = system: rabbit RBC
# Method: Pc4 was added to rabbit RBCC in POPC:DOPS=4:1 liposomes at 2 μM and exposed to 0, 10 and 15 J/cm^2, as indicated, of 700 nm light at room temperature after 5 minutes pre-irradiation incubation. The treated RBCC were labeled with ^51 CrO^2- and their circulatory survival assayed as described in Materials and Methods.
# Rabbit RBCC were treated as described for human red cells and their circulatory survival was determined as described previously (Rywkin, S., et al. Photochem. Photobiol. 56:463-469 (1992). Briefly, treated red cells were labelled with 1 μCi/ml Na2 ^51 CrO4 for 1 hour at room temperature and then thoroughly washed with PBS. The labelled cells were infused autologously. At intervals, 1 ml blood was withdrawn and the radioactivity associated with RBC was determined.
# [11] = system: RBC; test: Hemolysis after 21 day storage of RBCC treated with liposomal Pc4 and formulations of tocopherol succinate (Example 3); format: cell-based; details: with 2 μM liposomal Pc4, 10 J/cm^2, 670 nm, 4° C.
# Method: RBCC were treated with 2 μM Pc4 in POPC:DOPC=4:1 liposomes in the presence of 1 mM tocopherol succinate in the formulations presented in Table 4 below, and exposed to 10 J/cm^2 of red light (670 nm) emitted by LED array. The RBCC were then stored for 21 days at 4° C.
compound,measurement,setting,value
"CN(C)CCC[Si](C)(C)O[Si]1(O)n2c3c4ccccc4c2N=C2N=C(N=c4c5ccccc5c(n41)=NC1=NC(=N3)c3ccccc31)c1ccccc12 (stereo not drawn) [Pc4, hydroxysiloxydimethylpropyl-N-dimethyl silicon phthalocyanine]",Light Dose (for ≥6 log10 virus kill),[1]; Blood Bags (50 ml),55 J/cm2
same,Light Dose (for ≥6 log10 virus kill),[1]; Test Tubes (3 ml),15 J/cm2
same,virus kill,"[1]; HIV, at the light doses of Table 3",≥ 6 log10
same,viral reduction of HIV versus RBC hemolysis,[2],best viral reduction of HIV with the least amount of RBC hemolysis
same,Light Dose (for ≥6 log10 virus kill),[3]; Blood Bags (50 ml),30 J/cm2
same,Light Dose (for ≥6 log10 virus kill),[3]; Test Tubes (3 ml),7 J/cm2
same,virus kill,[3]; at the light doses of Table 3,≥ 6 log10
same,Light Dose (for ≥6 log10 virus kill),[4]; Blood Bags (50 ml),22 J/cm2
same,Light Dose (for ≥6 log10 virus kill),[4]; Test Tubes (3 ml),5 J/cm2
same,virus kill,[4]; at the light doses of Table 3,≥ 6 log10
same,"inactivation of VSV, 668 vs 700 nm LED","[5]; Pc4 2 μM in POPC:DOPS=4:1 liposomes, 4° C. (FIG. 5)",equally effective
same,"rate of inactivation of VSV, dependence on pre-irradiation incubation time","[5]; liposomal Pc4 2 μM, broad band red light (FIG. 1)",does not depend on time of incubation of liposomal Pc4 prior to light exposure
same,"VSV kill, effect of incubation temperature",[5]; room temperature vs 4° C.,not affected by the incubation temperature
same,Light Dose (for ≥6 log10 virus kill),"[6]; Blood Bags (50 ml), Pc4 2 μM with 4 mM cysteine, 1 mM tocopherol succinate, 0.5 mM carnitine, 670 nm LED",55 J/cm2
same,Light Dose (at this dose only 4 log10 kill),"[6]; Test Tubes (3 ml), Pc4 2 μM with 4 mM cysteine, 1 mM tocopherol succinate, 0.5 mM carnitine, 670 nm LED",15 J/cm2
same,virus kill,"[6]; Test Tubes, 15 J/cm2",4 log10
same,Pc4 binding to RBC at room temperature compared with 4° C.,"[7]; POPC:DOPS=9:1 liposomes, Tables 1 and 2",more binding to RBC than at 4 °C
same,Pc4 Bound to RBC,"[7]; delivery vehicle CRM, incubation time 0 min, room temperature",59%
same,Pc4 Bound to RBC,"[7]; delivery vehicle CRM, incubation time 5 min, room temperature",58%
same,Pc4 Bound to RBC,"[7]; delivery vehicle CRM, incubation time 30 min, room temperature",58%
same,Pc4 Bound to RBC,"[7]; delivery vehicle CRM, incubation time 90 min, room temperature",64%
same,Pc4 Bound to RBC,"[7]; delivery vehicle DMSO, incubation time 0 min, room temperature",54%
same,Pc4 Bound to RBC,"[7]; delivery vehicle DMSO, incubation time 5 min, room temperature",54%
same,Pc4 Bound to RBC,"[7]; delivery vehicle DMSO, incubation time 30 min, room temperature",56%
same,Pc4 Bound to RBC,"[7]; delivery vehicle DMSO, incubation time 90 min, room temperature",54%
same,Pc4 Bound to RBC,"[7]; delivery vehicle Liposomes (POPC:DOPS = 9:1), incubation time 0 min, room temperature",6%
same,Pc4 Bound to RBC,"[7]; delivery vehicle Liposomes (POPC:DOPS = 9:1), incubation time 5 min, room temperature",9%
same,Pc4 Bound to RBC,"[7]; delivery vehicle Liposomes (POPC:DOPS = 9:1), incubation time 30 min, room temperature",15%
same,Pc4 Bound to RBC,"[7]; delivery vehicle Liposomes (POPC:DOPS = 9:1), incubation time 90 min, room temperature",44%
same,Pc4 Bound to RBC,"[7]; liposomal preparation POPC:DOPS = 1:1, 35 minutes at 4° C.",0.8%
same,Pc4 Bound to RBC,"[7]; liposomal preparation POPC:DOPS = 1:2, 35 minutes at 4° C.",1.0%
same,Pc4 Bound to RBC,"[7]; liposomal preparation POPC:DOPS = 4:1, 35 minutes at 4° C.",4.4%
same,Pc4 Bound to RBC,"[7]; liposomal preparation POPC:DOPS = 9:1, 35 minutes at 4° C.",4.8%
same,Pc4 Bound to RBC,"[7]; liposomal preparation POPC:DOPS:PEG = 8:1:1, 35 minutes at 4° C.",23.5%
same,Pc4 Bound to RBC,"[7]; liposomal preparation POPC:DOPS:chol = 9:1:10, 35 minutes at 4° C.",33.7%
same,"Pc4 binding to red cells, effect of liposome composition","[7]; words, PEG, cholesterol or DOPS ratio as stated (Table 2)",progressively reduced binding of Pc4 to red cells
same,"hemolysis development during storage, 668 nm compared with 700 nm LED","[8]; Pc4 2 μM in POPC:DOPS=4:1 liposomes, 10 J/cm^2 (FIG. 6)",much faster
same,"rate of hemolysis during storage, 700 nm LED compared with untreated control","[8]; Pc4 2 μM in POPC:DOPS=4:1 liposomes, 10 J/cm^2 of 700 nm light (FIG. 6)",only slightly faster than in control
same,RBC damage / hemolysis at equivirucidal doses,"[8]; Pc4 2 μM in POPC:DOPS=4:1 liposomes, 668 nm (FIG. 4)",least RBC damage; also recorded: minimal hemolysis
same,"RBC hemolysis during storage, liposomes vs other vehicles","[8]; Pc4 2 μM, 90 J/cm2 broad band red light, 4° C. storage (FIG. 2)",less hemolysis
same,"RBC hemolysis during storage, effect of incubation time","[8]; liposomal Pc4 2 μM, 90 J/cm2 broad band red light (FIG. 2)",incubation for 5 minutes was better than for 30 minutes
same,hemolysis following a virucidal light dose,"[8]; liposomal Pc4, 10 J/cm^2, 700 nm, over 3 weeks storage, 30240 min, 2 µM",≤ 1%
same,effect on circulatory survival of red cells,"[9]; baboon, 10 J/cm^2 of 700 nm light",only a slight effect
same,24 hour recovery in vivo of the treated RBC,[9]; baboons,exceeded 90%
same,circulatory half-life and 24 hour recovery,"[9]; baboons, liposomal Pc4, 10 J/cm^2, 700 nm",essentially normal
same,circulatory half-life of RBC,"[9]; baboons, liposomal Pc4 and 10 J/cm2 of 700 nm light, from 13.2 days, preliminary",278 h
same,reduction of circulatory survival of red cells,"[10]; rabbit, 10 J/cm^2 of 700 nm light (FIG. 7)",about 30%
same,24 hour recovery in vivo of the treated RBC,[10]; rabbits,exceeded 90%
same,circulatory half-life of RBC,"[10]; rabbits, 10 J/cm^2 of 700 nm light, control 10.5 days (FIG. 7)",180 h
same,circulatory half-life and 24 hour recovery,"[10]; rabbits, liposomal Pc4, 10 J/cm^2, 700 nm",close to normal
Cc1c(C)c2c(c(C)c1OC(=O)CCC(=O)O)CCC(C)(CCCC(C)CCCC(C)CCCC(C)C)O2 (stereo not drawn) [α-tocopherol succinate],Hemolysis After 21 Day Storage,[11]; 1 mM α-tocopherol succinate formulated in Ethanol,10.5%
same,Hemolysis After 21 Day Storage,[11]; 1 mM α-tocopherol succinate formulated in POPC:DOPS = 4:1,18.3%
same,Hemolysis After 21 Day Storage,[11]; 1 mM α-tocopherol succinate formulated in POPC:DOPS:chol = 9:1:10,6.1%
same,Hemolysis After 21 Day Storage,[11]; 1 mM α-tocopherol succinate formulated in POPC,1.2%
